This note sets out measurements from patent publication US9399626B2, “2-thiopyrimidinones” (Pfizer Inc., priority 2011, dated 2016).

Where a name gives a salt, the structure may show the parent alone.

For the test, the target named is T1, MPO (purified from human polynuclear leukocytes) (Homo sapiens, UniProt P05164).
T1 construct: purified from human polynuclear leukocytes; purchased Calbiochem/EMD Biosciences; host or cells: human polynuclear leukocytes (natural source)
Nature of the test: MPO Amplex Red Activity Assay. It is filed as biochemical. To be noted: Table 1, 2 μM H2O2, pH 7.4. As to the method: MPO Amplex Red Activity Assay.
MPO peroxidase activity was measured by monitoring the formation of resorufin generated from the oxidation of Amplex Red (10-Acetyl-3,7-dihydroxyphenoxazine) (Invitrogen, Carlsbad, Calif.) by MPO (Gomes, Fernandes et al. 2005). Assay mixtures (100 μL total volume) contained 50 mM NaPi pH 7.4, 150 mM NaCl, 1 mM DTPA (diethylenetriaminepentaacetic acid), 2% DMSO, 2 μM H2O2, 30 μM Amplex Red and the reaction was initiated by the addition of […] (purified from human polynuclear leukocytes and purchased from Calbiochem/EMD Biosciences, Gibbstown, N.J.). All assays were performed in 96-well, half-area, black, nonbinding surface, polystyrene plates (Corning) and the production of resorufin (excitation 530 nm, emission 580 nm) was monitored every 20 sec on a Spectramax M2 Microplate Spectrophotometer (Molecular Devices, Palo Alto, Calif.) equipped with Softmax Pro software (Molecular Devices, Palo Alto, Calif.). Reactions to determine the background reaction rate consisted of all assay components and 4 μL of 500 unit/mL bovine catalase (Sigma) in 50 mM KPi pH 7.0. The background rate was subtracted from each reaction progress curve. All data was analyzed using non-linear regression analysis in Microsoft Excel and Kaleidagraph (Synergy Software).
To determine inhibitor potency (kinact/KI) against MPO, the first 600 sec of the reaction progress curves were fit to equation 1, where Vo is the initial rate in RFU/sec and t is time in seconds, to obtain the first order rate constant for enzyme inactivation (kobs) at each inhibitor concentration.
[formula] Equation 1 is a variation of the standard equation for slow binding inhibition where the steady state velocity (Vs) is set to zero. Each kobs value was corrected for auto-inactivation of the enzyme by subtracting the kobs value for the uninhibited reaction. The corrected kobs values were then plotted versus inhibitor concentration ([I]) and fit to equation 2
[formula] where kinact is the maximal rate of inactivation and KI is the inhibitor concentration that yields half the rate of maximal inactivation (Copeland 2005).
Table 1 and (1A) below provides the myeloperoxidase inhibitory activity for the Examples below in accordance with the above-described assay.

T1 sequence (P05164 279-745 limits assumed): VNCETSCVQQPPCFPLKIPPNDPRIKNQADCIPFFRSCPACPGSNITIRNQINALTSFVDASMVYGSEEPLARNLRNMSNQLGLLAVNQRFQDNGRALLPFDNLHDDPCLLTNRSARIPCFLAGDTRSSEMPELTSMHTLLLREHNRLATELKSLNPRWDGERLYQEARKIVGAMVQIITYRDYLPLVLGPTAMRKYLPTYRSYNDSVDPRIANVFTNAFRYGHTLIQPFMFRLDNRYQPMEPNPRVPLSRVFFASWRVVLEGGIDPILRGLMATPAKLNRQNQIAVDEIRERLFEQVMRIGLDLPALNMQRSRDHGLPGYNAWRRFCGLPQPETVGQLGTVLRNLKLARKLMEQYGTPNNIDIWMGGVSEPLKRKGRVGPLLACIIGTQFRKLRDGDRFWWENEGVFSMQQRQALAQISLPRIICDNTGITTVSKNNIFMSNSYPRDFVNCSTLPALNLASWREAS
T1 sequence (P05164 165-273 limits assumed): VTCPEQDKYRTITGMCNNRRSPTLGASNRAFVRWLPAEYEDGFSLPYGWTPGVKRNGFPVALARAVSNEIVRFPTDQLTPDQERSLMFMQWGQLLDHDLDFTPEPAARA

Take `COc1ccc(Cl)cc1-c1cc(=O)[nH]c(=S)n1CC(N)=O` [Example 1, 2-(6-(5-Chloro-2-methoxyphenyl)-4-oxo-2-thioxo-3,4-dihydropyrimidin-1(2H)-yl)acetamide]: the “MPO kinact/Ki” value is 11600 1/s per M. As for `COc1ccc(OC)c(-c2cc(=O)[nH]c(=S)n2CC(N)=O)c1` [Example 2, 2-(6-(2,5-Dimethoxyphenyl)-4-oxo-2-thioxo-3,4-dihydropyrimidin-1(2H)-yl)acetamide], the figure is 12500 1/s per M; as for `COc1ccc(-c2cc(=O)[nH]c(=S)n2CCO)c(OC)c1` [Example 3, 6-(2,4-Dimethoxyphenyl)-1-(2-hydroxyethyl)-2-thioxo-2,3-dihydropyrimidin-4(1H)-one], 29300 1/s per M; as for `COc1ccc(-c2cc(=O)[nH]c(=S)n2CCO)c(OC)n1` [Example 4, 6-(2,6-Dimethoxypyridin-3-yl)-1-(2-hydroxyethyl)-2-thioxo-2,3-dihydropyrimidin-4(1H)-one], 8790 1/s per M. As for `COc1ccc(-c2cc(=O)[nH]c(=S)n2CCNC(=O)OC(C)(C)C)c(OC)c1` [Example 5, tert-butyl 2-(6-(2,4-dimethoxyphenyl)-4-oxo-2-thioxo-3,4-dihydropyrimidin-1(2H)-yl)ethylcarbamate], the figure is 1280 1/s per M; as for `COc1ccc(-c2cc(=O)[nH]c(=S)n2CCN)c(OC)c1` [Example 6, 1-(2-aminoethyl)-6-(2,4-dimethoxyphenyl)-2-thioxo-2,3-dihydropyrimidin-4(1H)-one hydrochloride], 12900 1/s per M; as for `COc1ccc(-c2cc(=O)[nH]c(=S)n2CCN=C(N)N)c(OC)c1` [Example 7, 2-(2-(6-(2,4-dimethoxyphenyl)-4-oxo-2-thioxo-3,4-dihydropyrimidin-1(2H)-yl)ethyl)guanidine], 10900 1/s per M. As for `COc1ccc(-c2cc(=O)[nH]c(=S)n2CCNC(=O)CN)c(OC)c1` [Example 8, 2-amino-N-(2-(6-(2,4-dimethoxyphenyl)-4-oxo-2-thioxo-3,4-dihydropyrimidin-1(2H)-yl)ethyl)acetamide hydrochloride], the figure is 12100 1/s per M. With `COCCn1c(-c2cc(OC)ccc2OC)cc(=O)[nH]c1=S` [Example 9, 6-(2,5-dimethoxyphenyl)-1-(2-methoxyethyl)-2-thioxo-2,3-dihydropyrimidin-4(1H)-one], the “MPO kinact/Ki” value is listed as 15000 1/s per M. Regarding `COCCn1c(-c2ccccn2)cc(=O)[nH]c1=S` [Example 10, 1-(2-Methoxyethyl)-6-(pyridin-2-yl)-2-thioxo-2,3-dihydropyrimidin-4(1H)-one], the “MPO kinact/Ki” value is given as 619 1/s per M. As for `COc1ccccc1-c1cc(=O)[nH]c(=S)n1CCN` [Example 11, 1-(2-aminoethyl)-6-(2-methoxyphenyl)-2-thioxo-2,3-dihydropyrimidin-4(1H)-one hydrochloride], the figure is 6880 1/s per M.

On to `COc1ccc(-c2cc(=O)[nH]c(=S)n2CCO)cc1` [Example 12, 1-(2-hydroxyethyl)-6-(4-methoxyphenyl)-2-thioxo-2,3-dihydropyrimidin-4(1H)-one], for which the “MPO kinact/Ki” value is 5010 1/s per M.

Turning to `COCCn1c(-c2ccc(C#N)cc2)cc(=O)[nH]c1=S` [Example 13, 4-[3-(2-methoxyethyl)-6-oxo-2-thioxo-1,2,3,6-tetrahydro-pyrimidin-4-yl]benzonitrile], the “MPO kinact/Ki” value is 745 1/s per M. As for `NCCn1c(-c2ccc3c(c2)CCO3)cc(=O)[nH]c1=S` [Example 14, 1-(2-aminoethyl)-6-(2,3-dihydro-1-benzofuran-5-yl)-2-thioxo-2,3-dihydropyrimidin-4(1H)-one hydrochloride], the figure is 5310 1/s per M. For `O=c1cc(-c2ccc3c(c2)CCO3)n(CCO)c(=S)[nH]1` [Example 15, 6-(2,3-dihydro-1-benzofuran-5-yl)-1-(2-hydroxyethyl)-2-thioxo-2,3-dihydropyrimidin-4(1H)-one], the “MPO kinact/Ki” value was 5420 1/s per M. Turning to `O=c1cc(-c2cccc3c2OCC3)n(CCO)c(=S)[nH]1` [Example 16, 6-(2,3-dihydro-1-benzofuran-7-yl)-1-(2-hydroxyethyl)-2-thioxo-2,3-dihydropyrimidin-4(1H)-one], the “MPO kinact/Ki” value is given as 6510 1/s per M. As for `COc1ccccc1-c1cc(=O)[nH]c(=S)n1CC(N)=O` [Example 17, 2-[6-(2-methoxyphenyl)-4-oxo-2-thioxo-3,4-dihydropyrimidin-1(2H)-yl]acetamide], the figure is 4460 1/s per M; as for `COc1ccccc1-c1cc(=O)[nH]c(=S)n1CCCN` [Example 18, 1-(3-aminopropyl)-6-(2-methoxyphenyl)-2-thioxo-2,3-dihydropyrimidin-4(1H)-one hydrochloride], 8280 1/s per M; as for `COc1ncc(C)cc1-c1cc(=O)[nH]c(=S)n1CCN` [Example 19, 1-(2-aminoethyl)-6-(2-methoxy-5-methylpyridin-3-yl)-2-thioxo-2(3-dihydropyrimidin-4(1H)-one trifluoroacetate], 1960 1/s per M. As for `COCCn1c(-c2ncccc2OC)cc(=O)[nH]c1=S` [Example 20, 1-(2-methoxyethyl)-6-(3-methoxypyridin-2-yl)-2-thioxo-2,3-dihydropyrimidin-4(1H)-one], the “MPO kinact/Ki” value is listed as 1330 1/s per M.

For the compound `COc1nc(C)ccc1-c1cc(=O)[nH]c(=S)n1CCO` [Example 21, 1-(2-hydroxyethyl)-6-(2-methoxy-6-methylpyridin-3-yl)-2-thioxo-2,3-dihydropyrimidin-4(1H)-one], the “MPO kinact/Ki” value is 4530 1/s per M. For `COc1ccc(C)nc1-c1cc(=O)[nH]c(=S)n1CCO` [Example 22, 1-(2-hydroxyethyl)-6-(3-methoxy-6-methylpyridin-2-yl)-2-thioxo-2,3-dihydropyrimidin-4(1H)-one], the “MPO kinact/Ki” value was 6340 1/s per M. For `COCCn1c(-c2cccnc2OC)cc(=O)[nH]c1=S` [Example 23, 1-(2-methoxyethyl)-6-(2-methoxypyridin-3-yl)-2-thioxo-2,3-dihydropyrimidin-4(1H)-one], the “MPO kinact/Ki” value is listed as 991 1/s per M. As for `CSc1ccccc1-c1cc(=O)[nH]c(=S)n1CCO` [Example 24, 1-(2-hydroxyethyl)-6-[2-(methylthio)phenyl]-2-thioxo-2,3-dihydropyrimidin-4(1H)-one], the “MPO kinact/Ki” value is recorded as 7640 1/s per M. Consider `COc1cc(F)ccc1-c1cc(=O)[nH]c(=S)n1CCN` [Example 25, 1-(2-aminoethyl)-6-(4-fluoro-2-methoxyphenyl)-2-thioxo-2,3-dihydropyrimidin-4(1H)-one hydrochloride], for which the “MPO kinact/Ki” value is 9210 1/s per M. As for `COc1ccc(F)cc1-c1cc(=O)[nH]c(=S)n1CCN.Cl` [Example 26, 1-(2-aminoethyl)-6-(5-fluoro-2-methoxyphenyl)-2-thioxo-2,3-dihydropyrimidin-4(1H)-one hydrochloride], the figure is 3180 1/s per M.

With `COc1cc(F)ccc1-c1cc(=O)[nH]c(=S)n1CCO` [Example 27, 6-(4-fluoro-2-methoxyphenyl)-1-(2-hydroxyethyl)-2-thioxo-2,3-dihydropyrimidin-4(1H)-one], the “MPO kinact/Ki” value is 15800 1/s per M.
